Laboratory results taken from patent US20180179499A1, “BIOBASED PRODUCTION OF FUNCTIONALIZED ALPHA-SUBSTITUTED ACRYLATES AND C4-DICARBOXYLATES” (BIOAMBER INC., priority 2015, published 2018).

Assays:
E. coli = assay: Host tolerance: growth rate with compound versus unchallenged cells; format: cell-based; conditions: pH 8, 30° C.
Description: Two eukaryotic strains, I. orientalis and S. cerevisiae, were tested at pH 3 and pH 5. Three bacterial strains were tested using their individual optimal conditions. E. coli and C. glutamicum were tested at pH 8 and 30° C., and B. firmus was tested at pH 9 and 37° C. I. orientalis was grown in defined yeast media consisting of 5 g/L ammonium sulfate, 0.5 g/L magnesium sulfate heptahydrate, 3 g/L potassium phosphate monobasic, 10 g/L dextrose, 1 mL/L of 10% glycerol stock, 1 mL/L of 1000× trace. The 1000× trace stock solution contains 4 g/L ZnSO4.7H2O, 2 g/L FeSO4.7H2O, 1 g/L MnSO4.H2O, 0.2 g/L CuSO4.5H2O, and 0.8 mL/L H2SO4. […]
Time points were taken over a period of at least 8 hours and up to 24 hours to calculate the rate of growth. Specific growth rate was determined by plotting the natural logarithm of cell number against time. Tolerance was determined by growth rate of cells in the presence of the compound as compared to in the absence of the compound. […]
(§1) Time points were taken over a period of at least 8 hours and up to 24 hours to calculate the rate of growth. Specific growth rate was determined by plotting the natural logarithm of cell number against time. Tolerance was determined by growth rate of cells in the presence of the compound as compared to in the absence of the compound.

[1] = tested on: potential bacterial hosts (E. coli, C. glutamicum, B. firmus, B. cohnii); assay: Tolerance of potential bacterial hosts: highest concentration with growth observed; format: cell-based; conditions: Table F, max conc tested 100 g/L
Description: (§2) Two eukaryotic strains, I. orientalis and S. cerevisiae, were tested at pH 3 and pH 5. Three bacterial strains were tested using their individual optimal conditions. E. coli and C. glutamicum were tested at pH 8 and 30° C., and B. firmus was tested at pH 9 and 37° C. I. orientalis was grown in defined yeast media consisting of 5 g/L ammonium sulfate, 0.5 g/L magnesium sulfate heptahydrate, 3 g/L potassium phosphate monobasic, 10 g/L dextrose, 1 mL/L of 10% glycerol stock, 1 mL/L of 1000× trace. The 1000× trace stock solution contains 4 g/L ZnSO4.7H2O, 2 g/L FeSO4.7H2O, 1 g/L MnSO4.H2O, 0.2 g/L CuSO4.5H2O, and 0.8 mL/L H2SO4. S. cerevisiae was grown in buffered defined dextrose media consisting of 50 g/L dextrose, 5 g/L yeast extract, and 40 mL/L 25× DM salts. The 25× DM salt stock solution contains 125 g/L ammonium sulfate, 12.5 g/L magnesium sulfate heptahydrate, 75 g/L potassium phosphate monobasic, and 787.5 g/L water. The bacterial strains were grown in standard LB media consisting of 10 g/L bacto-tryptone, 5 g/L yeast extract, 10 g/L NaCl, and 20 g/L dextrose with addition of 20 g/L glucose.
as §1
(§3) Two eukaryotic strains, I. orientalis and S. cerevisiae, were tested for tolerance to the selected compounds at pH 3 and pH 5. The bacterial strains were grown at their individual optimal conditions, E coli and C. glutamicum at pH 8 and 30° C., and B. firmus and B. cohnii at pH 9 and 37° C. I. orientalis was grown in defined yeast media consisting of 5 g/L ammonium sulfate, 0.5 g/L magnesium sulfate heptahydrate, 3 g/L potassium phosphate monobasic, 10 g/L dextrose, 1 mL/L of 10% glycerol stock, 1 mL/L of 1000× trace. The 1000× trace stock solution contains 4 g/L ZnSO4.7H2O, 2 g/L FeSO4.7H2O, 1 g/L MnSO4.H2O, 0.2 g/L CuSO4.5H2O, and 0.8 mL/L H2SO4. S. cerevisiae was grown in buffered defined dextrose media consisting of 50 g/L dextrose, 5 g/L yeast extract, and 40 mL/L 25×DM salts. The 25×DM salt stock solution contains 125 g/L ammonium sulfate, 12.5 g/L magnesium sulfate heptahydrate, 75 g/L potassium phosphate monobasic, and 787.5 g/L water. The bacterial strains were grown in standard LB media consisting of 10 g/L bacto-tryptone, 5 g/L yeast extract, 10 g/L NaCl, and 20 g/L dextrose with addition of 20 g/L glucose.
as §1

[2] = tested on: potential yeast hosts (I. orientalis, S. cerevisiae); assay: Tolerance of potential yeast hosts: maximum concentration in which growth was detected; format: cell-based; conditions: Table E
Description: as §2, §1, §3, §1

B. firmus = assay: Host tolerance: growth rate with compound versus unchallenged cells; format: cell-based; conditions: pH 9, 37° C.
Description: (§4) Potential hosts for the described pathways to alpha substituted C4 dicarboxylic acids were identified by determining the tolerance to functionalized alpha substituted dicarboxylic acids as shown in FIG. 2. Specific functionalized alpha substituted C4 dicarboxylic acid compounds were selected to assess tolerance of bacterial and eukaryotic hosts.
as §2
(§5) Time points were taken over a period of at least 8 hours and up to 24 hours to calculate the rate of growth. Specific growth rate was determined by plotting the natural logarithm of cell number against time. Tolerance was determined by growth rate of cells in the presence of the compound as compared to in the absence of the compound. The scoring method is indicated in Table D. The results of the tolerance studies are shown in Tables E and F. The second column from the left denotes the maximum concentration of the indicated compound in which growth was detected. […] I. orientalis is also a suitable host for most of the compounds.
(§6) Potential hosts for the described pathways to alpha substituted acrylic acid were identified by determining the tolerance to functionalized alpha substituted acrylic acid end-products as shown generally in FIGS. 1 and 3 and more specifically in FIGS. 9 and 10. […]
(§7) Time points were taken over a period of at least 8 hours and up to 24 hours to calculate the rate of growth. Specific growth rate was determined by plotting the natural logarithm of cell number against time. […]

C. glutamicum = assay: as above; format: cell-based; conditions: pH 8, 30° C.
Description: as §4, §2, §5, §6, §7

[3] = Dehydratase assay: lysate incubated with itatartaric acid, HPLC/NMR; format: biochemical; conditions: knockout E coli strains (acnA or acnB deleted), lysate with ITT overnight at 30° C., HPLC
Description: E. coli optimized genes encoding dehydratases are synthesized and cloned into pTrcHisA (Life Technologies (formerly Invitrogen)). Dehydratase candidates are found in Table I. Plasmids containing the optimized synthase genes are transformed into BL21 E. coli cells. Empty plasmid pTrcHisA are also transformed as a negative control. […]. Flasks are incubated at 30° C. at 250 rpm shaking for 2 hours, then protein production is induced with 0.2 mM IPTG and incubated for 4 more hours at 30° C. while shaking. Cells are harvested by centrifugation and pellets are stored at −80° C.
Cells are lysed using mechanical disruption using a BeadBeater (BopSpec products, Bartlesville, Okla.) using the manufacturer's instructions. […] Protein concentrations of the resulting clarified lysates are measured via BioRad total Protein assay using the manufacturer's instructions. […]
The reaction mixture contains 100 mM TAPS buffer pH 6.8, 100 mM KCl, 100 mM substrate alpha (hydroxymethyl) maleic acid. […] The reactions in these microplates are monitored at 235 nm. Readings are taken every 9 seconds for 10 minutes and the data is used to calculate activities of each enzyme. Background absorbance is measured by the same reaction with no substrate present are subtracted. […]
The lysates were incubated with or without a known amount of synthesized ITT overnight at 30° C., and then the samples were analyzed by HPLC. […]

[4] = Synthase activity assay (DTNB, lysates of BL21 E. coli expressing the candidate); format: biochemical; conditions: Table H, wild type and mutant synthases; 0.5 mM hydroxypyruvate
Description: E coli optimized genes encoding synthases were synthesized and cloned into pTrcHisA (Life Technologies (formerly Invitrogen)). Synthase genes tested are found in Table G. Plasmids containing the optimized synthase genes were transformed into BL21 E. coli cells. Empty plasmid pTrcHisA was also transformed as a negative control. […]. Flasks were incubated at 30° C. at 250 rpm shaking for 2 hours, then protein production was induced with 0.2 mM IPTG and incubated for 4 more hours at 30° C. while shaking. Cells were harvested by centrifugation and pellets were stored at −80° C.
Activity of synthase candidates was assessed with an in vitro assay using DTNB (5,5′-Dithiobis(2-nitrobenzoic acid)) as an indicator. The enzyme activity was tested using either no substrate or hydroxypyruvate as the substrate. The DTNB interacts with the free thio created by the condensation of acetyl-CoA and the substrate present. Unless otherwise specified, all chemicals were purchased from Sigma-Aldrich Chemical Company, St. Louis, Mo.
Cells were lysed using mechanical disruption using a BeadBeater (BopSpec products, Bartlesville, Okla.) following the manufacturer's instructions. The cell lysate was partially clarified by centrifugation (14,000G for 5 minutes). Protein concentrations of the resulting clarified lysates were measured via BioRad total Protein assay using the manufacturer's instructions. Lysates were normalized by protein concentration in 100 mM Tris buffer. The normalized lysates were diluted 1 to 7 in 100 mM Tris buffer. 20 μl of lysate was added to each well for the 96-well plate assay. Each condition was performed in triplicate.
The reaction mixture contains 100 mM Tris pH 7.4, 5 mM MgSO4, 0.2 mM acetyl-CoA, 0.5 mM DTNB, 0.5 mM substrate, hydroxypyruvate. To start the reaction, 180 μl of reaction mix was added to each well already containing 20 μl lysate. The reactions in these microplates were monitored at 412 nm. Readings were taken every 9 seconds for 10 minutes and the data was used to calculate activities of each enzyme. Synthase activity was observed when hydroxypyruvate was the substrate as compared to cells containing empty vector (FIG. 20(a), Table G). Background absorbance as measured by the same reaction with no substrate present were subtracted. Error bars in the graphs reflect the standard deviations calculated for the averages for each condition performed in triplicate. Specific mutations change the activity of the enzymes tested (FIG. 20(b), Table H). Further enzyme engineering will improve specificity and activity of desired enzymatic reaction.

O=C(O)CC1(C(=O)O)CCC(=O)O1 (stereo not drawn) [Homocitrate lactone]
Tolerance score (percent growth rate as compared to unchallenged cells) (E. coli): +++ (100-90%) | Highest conc with growth observed [1]: 100 g/L | Max conc (maximum concentration in which growth was detected) [2]: 100 g/L | Tolerance score (percent growth rate as compared to unchallenged cells) (B. firmus): − (10-0%) | Tolerance score (percent growth rate as compared to unchallenged cells) (C. glutamicum): − (10-0%)

O=C(O)CC[C@@](O)(CC(=O)O)C(=O)O [Homocitrate]
Tolerance score (percent growth rate as compared to unchallenged cells) (E. coli): − (10-0%) | Highest conc with growth observed [1]: 50 g/L | Max conc (maximum concentration in which growth was detected) [2]: 100 g/L | Tolerance score (percent growth rate as compared to unchallenged cells) (B. firmus): − (10-0%) | Tolerance score (percent growth rate as compared to unchallenged cells) (C. glutamicum): +++ (100-90%)

B1: acnA: E coli aconitase acnA, endogenous dehydratase, GenBank CAA42834 (protein, UniProt P25516 2-891, looked up)
Aconitate hydratase A: SSTLREASKDTLQAKDKTYHYYSLPLAAKSLGDITRLPKSLKVLLENLLRWQDGNSVTEEDIHALAGWLKNAHADREIAYRPARVLMQDFTGVPAVVDLAAMREAVKRLGGDTAKVNPLSPVDLVIDHSVTVDRFGDDEAFEENVRLEMERNHERYVFLKWGKQAFSRFSVVPPGTGICHQVNLEYLGKAVWSELQDGEWIAYPDTLVGTDSHTTMINGLGVLGWGVGGIEAEAAMLGQPVSMLIPDVVGFKLTGKLREGITATDLVLTVTQMLRKHGVVGKFVEFYGDGLDSLPLADRATIANMSPEYGATCGFFPIDAVTLDYMRLSGRSEDQVELVEKYAKAQGMWRNPGDEPIFTSTLELDMNDVEASLAGPKRPQDRVALPDVPKAFAASNELEVNATHKDRQPVDYVMNGHQYQLPDGAVVIAAITSCTNTSNPSVLMAAGLLAKKAVTLGLKRQPWVKASLAPGSKVVSDYLAKAKLTPYLDELGFNLVGYGCTTCIGNSGPLPDPIETAIKKSDLTVGAVLSGNRNFEGRIHPLVKTNWLASPPLVVAYALAGNMNINLASEPIGHDRKGDPVYLKDIWPSAQEIARAVEQVSTEMFRKEYAEVFEGTAEWKGINVTRSDTYGWQEDSTYIRLSPFFDEMQATPAPVEDIHGARILAMLGDSVTTDHISPAGSIKPDSPAGRYLQGRGVERKDFNSYGSRRGNHEVMMRGTFANIRIRNEMVPGVEGGMTRHLPDSDVVSIYDAAMRYKQEQTPLAVIAGKEYGSGSSRDWAAKGPRLLGIRVVIAESFERIHRSNLIGMGILPLEFPQGVTRKTLGLTGEEKIDIGDLQNLQPGATVPVTLTRADGSQEVVPCRCRIDTATELTYYQNDGILHYVIRNMLK
Formation of ITT dehydration product [3]: capable of producing the observed dehydration product

B2: SpLys4mt3: Lys4 mutant D123N, V125F, I194L, Schizosaccharomyces pombe (protein, UniProt Q9Y823 1-418, looked up, variant D123N V125F I194L)
chain: MSVSEANGTETIKPPMNGNPYGPNPSDFLSRVNNFSIIESTLREGEQFANAFFDTEKKIQIAKALDNFGVDYIELTSPVASEQSRQDCEAICKLGLKCKILTHIRCHMDDARVAVETGVDGVNVFIGTSQYLRKYSHGKDMTYIIDSATEVINFVKSKGIEVRFSSEDSFRSDLVDLLSLYKAVDKIGVNRVGLADTVGCATPRQVYDLIRTLRGVVSCDIECHFHNDTGMAIANAYCALEAGATHIDTSILGIGERNGITPLGALLARMYVTDREYITHKYKLNQLRELENLVADAVEVQIPFNNYITGMCAFTHKAGIHAKAILANPSTYEILKPEDFGMSRYVHVGSRLTGWNAIKSRAEQLNLHLTDAQAKELTVRIKKLADVRTLAMDDVDRVLREYHADLSDADRITKEASA
Activity with hydroxy pyruvate [4]: 0.013
